Measurements reported in patent US20110100079A1, “METHOD FOR IMPARTING STRESS TOLERANCE TO PLANT” (priority 2007, published 2011).

Tests used:
“Momotaro” tomato [1] = assay: Example 6 salt stress test (tomato), hydroponic culture; format: in vivo; conditions: 23° C., 100 ppm, 2 weeks; for Fresh weight, relative value (untreated plot = 100), Test 5 / Fresh weight, relative value (untreated plot = 100), Test 8 / Fresh weight, relative value (untreated plot = 100), Test 6 / Fresh weight, relative value (untreated plot = 100), Test 7: hydroponic culture; for Fresh weight, relative value (untreated plot = 100), Test 5: EC 2.7 mS/cm; for Fresh weight, relative value (untreated plot = 100), Test 5 / Fresh weight, relative value (untreated plot = 100), Test 6 / Fresh weight, relative value (untreated plot = 100), Test 7 / Fresh weight, relative value (untreated plot = 100), Comparison 2: two-leaf stage; for Fresh weight, relative value (untreated plot = 100), Test 8 / Fresh weight, relative value (untreated plot = 100), Test 6: EC 3.9 mS/cm; for Fresh weight, relative value (untreated plot = 100), Test 8: five-leaf stage; for Fresh weight, relative value (untreated plot = 100), Test 7: EC 4.8 mS/cm; for Fresh weight, relative value (untreated plot = 100), Comparison 2: stress-free: hydroponic culture, EC 1.3 mS/cm
Procedure: (§1) (a) Comparative example conditions (stress-free optimum growth conditions) Cultivation temperature: 23° C., EC: 1.3 mS/cm (Otsuka ½A formulation) (b) Example conditions (salt stress conditions) Cultivation temperature: 23° C., EC: 2.7, 3.9, 4.8 mS/cm (cultivation with Kureha gardening soil) (2) Illuminance: 5000 Lux (fluorescent light), light/dark cycle: 16 hours/8 hours (3) Employed soil: Kureha gardening soil manufactured by Kureha Corporation (fertilizer components: N:P:K=0.4:1.9:0.6 g/kg soil) (4) Employed solution culture medium: Otsuka ½A formulation: a mixed solution of Otsuka House No. 1 (N:P:K=10:8:27) 7.5 g/10 L and Otsuka House No. 2 (N:P:K:Ca=10:0:0:23) 5 g/10 L, total nitrogen: 130 ppm, phosphoric acid: 60 ppm, potassium: 203 ppm) (5) Cultivation period: 2 weeks (6) Plant preparation: A 50-cell tray was filled with Kureha gardening soil manufactured by Kureha Corporation (fertilizer components: N:P:K=0.4:1.9:0.6 g/kg soil), and seeds of a “Momotaro” tomato or tubers of a “Danshaku” potato were sowed, thinly covered with Kureha gardening soil, and sufficiently watered to allow the seeds or the tubers to sprout. When the leaves in the 2-leaf stage or the 5-leaf stage fully unfolded, the soil on the tomato roots or the potato roots was carefully washed away with running water, and a test was performed. (7) Test chemicals: POE (20) sorbitan monolauric acid ester: Reodol TW-L120 (Kao Corporation) POE (20) sorbitan monopalmitic acid ester: Reodol TW-P120 (Kao Corporation) POE (20) sorbitan monostearic acid ester: Reodol TW-S120 (Kao Corporation) POE (20) sorbitan monooleic acid ester: Reodol TW-O120 (Kao Corporation) Sorbitan monooleic acid ester: Emasol 0-10(F) (Kao Corporation) POE (6) sorbitan monooleic acid ester: Reodol TW-O106 (Kao Corporation) Alkyl (number of carbon atoms: 10) polyglucoside: AG-10LK (Kao Corporation) Alkyl (number of carbon atoms: 12 to 14) polyglucoside: AG-124 (Kao Corporation) Sucrose fatty acid ester (number of carbon atoms: C18, HLB: 5): S-570 (Mitsubishi-Kagaku Foods Corporation) Sucrose fatty acid ester (number of carbon atoms: C18, HLB: 9): S-970 (Mitsubishi-Kagaku Foods Corporation) Sucrose fatty acid ester (number of carbon atoms: C18, HLB: 11): S-1170 (Mitsubishi-Kagaku Foods Corporation) Sucrose fatty acid ester (number of carbon atoms: C18, HLB: 15): 5-1570 (Mitsubishi-Kagaku Foods Corporation) Sucrose fatty acid ester (number of carbon atoms: C16, HLB: 15): P-1570 (Mitsubishi-Kagaku Foods Corporation) Sucrose fatty acid ester (number of carbon atoms: C18:1, HLB: 15): O-1570 (Mitsubishi-Kagaku Foods Corporation) (8) Amount of treatment solution applied: 10 ml/specimen for leaf spraying, 250 ml/specimen for hydroponic culture (treatment of underground portion) (9) 50 ml/specimen for soil culture (treatment of underground portion)
The environmental conditions in a climatic chamber were controlled so as to have a temperature of 23° C., an illuminance by a fluorescent light of 5000 Lux, and a daily light-dark cycle of a 16-hour light period and an 8-hour dark period. Tomatoes as prepared above were planted in 250 ml polyethylene bottles each filled with a solution culture medium having a different EC value. Different EC values were achieved by taking a ½ Otsuka A formulation having an EC value of 1.3 as a standard and suitably increasing the fertilizer concentration through proportional counting. A treatment solution containing a compound of Table 1 in a specific concentration (the remainder was water) was prepared and sprayed onto the leaves or applied to the underground portion. In each test plot, 10 specimens were prepared for replication, and the average of the fresh weight of each specimen 2 weeks after the beginning of the test was calculated and expressed as a relative value where “100” indicates a result identical to that of the untreated plot of a given EC condition. […]

“Momotaro” tomato [2] = assay: Example 6 salt stress test (tomato), soil culture; format: in vivo; conditions: 23° C., 100 ppm, 2 weeks; for Fresh weight, relative value (untreated plot = 100), Test 1 / Fresh weight, relative value (untreated plot = 100), Test 4 / Fresh weight, relative value (untreated plot = 100), Test 2 / Fresh weight, relative value (untreated plot = 100), Test 3: soil culture; for Fresh weight, relative value (untreated plot = 100), Test 1: EC 1.3 mS/cm; for Fresh weight, relative value (untreated plot = 100), Test 1 / Fresh weight, relative value (untreated plot = 100), Test 2 / Fresh weight, relative value (untreated plot = 100), Test 3 / Fresh weight, relative value (untreated plot = 100), Comparison 1: pF 1.7, two-leaf stage; for Fresh weight, relative value (untreated plot = 100), Test 4 / Fresh weight, relative value (untreated plot = 100), Test 2: EC 2 mS/cm; for Fresh weight, relative value (untreated plot = 100), Test 4: pF 1.7, five-leaf stage; for Fresh weight, relative value (untreated plot = 100), Test 3: EC 3 mS/cm; for Fresh weight, relative value (untreated plot = 100), Comparison 1: stress-free: soil culture, EC 1 mS/cm
Procedure: (1) A. soil culture (a) Comparative example conditions (stress-free optimum growth conditions) Cultivation temperature: 23° C., EC: 1.0 mS/cm (cultivation with Kureha gardening soil), pF value: 1.7 (capillaries in a saturated state) (b) Example conditions (salt stress conditions) Cultivation temperature: 23° C., EC: 1.3, 2.0, 3.0 mS/cm (cultivation with Kureha gardening soil), pF value: 1.7 (capillaries in a saturated state)
as §1
The environmental conditions in a climatic chamber were controlled so as to have a temperature of 23° C., an illuminance by a fluorescent light of 5000 Lux, and a daily light-dark cycle of a 16-hour light period and an 8-hour dark period. Tomatoes as prepared above were transplanted in size-3 (9 cm) pots. During the test period, the EC value was controlled by adding a suitable amount of a 10% NaCl solution once a day so as to attain a specific salt stress value. A treatment solution containing a compound of Table 1 in a specific concentration (the remainder was water) was prepared and sprayed onto the leaves or applied to the underground portions. […]

OC[C@H]1O[C@H](OC[C@H]2O[C@H](O[C@]3(CO)O[C@H](CO)[C@@H](O)[C@@H]3O)[C@H](O)[C@@H](O)[C@@H]2O)[C@H](O)[C@@H](O)[C@H]1O [Comparative product 4, Raffinose, reference compound]
Fresh weight, relative value (untreated plot = 100), Test 5 (“Momotaro” tomato [1]; leaf): 103 | Fresh weight, relative value (untreated plot = 100), Test 8 (“Momotaro” tomato [1]; leaf): 102 | Fresh weight, relative value (untreated plot = 100), Test 6 (“Momotaro” tomato [1]; leaf): 103 | Fresh weight, relative value (untreated plot = 100), Test 7 (“Momotaro” tomato [1]; leaf): 103 | Fresh weight, relative value (untreated plot = 100), Comparison 2 (“Momotaro” tomato [1]; leaf): 102

POE (20) sorbitan monolauric acid ester [Product of present invention 12]
Fresh weight, relative value (untreated plot = 100), Test 1 (“Momotaro” tomato [2]; leaf): 131 | Fresh weight, relative value (untreated plot = 100), Test 4 (“Momotaro” tomato [2]; leaf): 146 | Fresh weight, relative value (untreated plot = 100), Test 2 (“Momotaro” tomato [2]; leaf): 155 | Fresh weight, relative value (untreated plot = 100), Test 3 (“Momotaro” tomato [2]; leaf): 133 | Fresh weight, relative value (untreated plot = 100), Comparison 1 (“Momotaro” tomato [2]; leaf): 101 | Fresh weight, relative value (untreated plot = 100), Test 5 (“Momotaro” tomato [1]; leaf): 136 | Fresh weight, relative value (untreated plot = 100), Test 8 (“Momotaro” tomato [1]; leaf): 147 | Fresh weight, relative value (untreated plot = 100), Test 6 (“Momotaro” tomato [1]; leaf): 160 | Fresh weight, relative value (untreated plot = 100), Test 7 (“Momotaro” tomato [1]; leaf): 135 | Fresh weight, relative value (untreated plot = 100), Comparison 2 (“Momotaro” tomato [1]; leaf): 101

C[N+](C)(C)CC(=O)[O-] [Comparative product 3, Glycine betaine, reference compound]
Fresh weight, relative value (untreated plot = 100), Test 1 (“Momotaro” tomato [2]; leaf): 103 | Fresh weight, relative value (untreated plot = 100), Test 4 (“Momotaro” tomato [2]; leaf): 101 | Fresh weight, relative value (untreated plot = 100), Test 2 (“Momotaro” tomato [2]; leaf): 103 | Fresh weight, relative value (untreated plot = 100), Test 3 (“Momotaro” tomato [2]; leaf): 103 | Fresh weight, relative value (untreated plot = 100), Comparison 1 (“Momotaro” tomato [2]; leaf): 102 | Fresh weight, relative value (untreated plot = 100), Test 5 (“Momotaro” tomato [1]; leaf): 103 | Fresh weight, relative value (untreated plot = 100), Test 8 (“Momotaro” tomato [1]; leaf): 101 | Fresh weight, relative value (untreated plot = 100), Test 6 (“Momotaro” tomato [1]; leaf): 103 | Fresh weight, relative value (untreated plot = 100), Test 7 (“Momotaro” tomato [1]; leaf): 102 | Fresh weight, relative value (untreated plot = 100), Comparison 2 (“Momotaro” tomato [1]; leaf): 102

Sucrose fatty acid ester (C18, HLB = 15) [Product of present invention 20]
Fresh weight, relative value (untreated plot = 100), Test 1 (“Momotaro” tomato [2]; leaf): 120 | Fresh weight, relative value (untreated plot = 100), Test 4 (“Momotaro” tomato [2]; leaf): 129 | Fresh weight, relative value (untreated plot = 100), Test 2 (“Momotaro” tomato [2]; leaf): 134 | Fresh weight, relative value (untreated plot = 100), Test 3 (“Momotaro” tomato [2]; leaf): 119 | Fresh weight, relative value (untreated plot = 100), Test 5 (“Momotaro” tomato [1]; leaf): 121 | Fresh weight, relative value (untreated plot = 100), Test 8 (“Momotaro” tomato [1]; leaf): 133 | Fresh weight, relative value (untreated plot = 100), Test 6 (“Momotaro” tomato [1]; leaf): 138 | Fresh weight, relative value (untreated plot = 100), Test 7 (“Momotaro” tomato [1]; leaf): 125 | Fresh weight, relative value (untreated plot = 100), Comparison 2 (“Momotaro” tomato [1]; leaf): 103

O=C(O)[C@@H]1CCCN1 [Comparative product 2, Proline, reference compound]
Fresh weight, relative value (untreated plot = 100), Test 1 (“Momotaro” tomato [2]; underground portion): 103 | Fresh weight, relative value (untreated plot = 100), Test 4 (“Momotaro” tomato [2]; underground portion): 100 | Fresh weight, relative value (untreated plot = 100), Test 3 (“Momotaro” tomato [2]; underground portion): 100 | Fresh weight, relative value (untreated plot = 100), Test 5 (“Momotaro” tomato [1]; leaf): 102 | Fresh weight, relative value (untreated plot = 100), Test 5 (“Momotaro” tomato [1]; underground portion): 103 | Fresh weight, relative value (untreated plot = 100), Test 8 (“Momotaro” tomato [1]; leaf): 101 | Fresh weight, relative value (untreated plot = 100), Test 8 (“Momotaro” tomato [1]; underground portion): 100 | Fresh weight, relative value (untreated plot = 100), Test 6 (“Momotaro” tomato [1]; leaf): 102 | Fresh weight, relative value (untreated plot = 100), Test 6 (“Momotaro” tomato [1]; underground portion): 103 | Fresh weight, relative value (untreated plot = 100), Test 7 (“Momotaro” tomato [1]; leaf): 102 | Fresh weight, relative value (untreated plot = 100), Test 7 (“Momotaro” tomato [1]; underground portion): 102 | Fresh weight, relative value (untreated plot = 100), Comparison 2 (“Momotaro” tomato [1]; leaf): 102 | Fresh weight, relative value (untreated plot = 100), Comparison 2 (“Momotaro” tomato [1]; underground portion): 103

POE (20) sorbitan monooleic acid ester [Product of present invention 1]
Fresh weight, relative value (untreated plot = 100), Test 1 (“Momotaro” tomato [2]; underground portion): 142 | Fresh weight, relative value (untreated plot = 100), Test 4 (“Momotaro” tomato [2]; underground portion): 156 | Fresh weight, relative value (untreated plot = 100), Test 2 (“Momotaro” tomato [2]; underground portion): 185 | Fresh weight, relative value (untreated plot = 100), Test 3 (“Momotaro” tomato [2]; underground portion): 140 | Fresh weight, relative value (untreated plot = 100), Comparison 1 (“Momotaro” tomato [2]; underground portion): 103 | Fresh weight, relative value (untreated plot = 100), Test 5 (“Momotaro” tomato [1]; underground portion): 145 | Fresh weight, relative value (untreated plot = 100), Test 8 (“Momotaro” tomato [1]; underground portion): 160 | Fresh weight, relative value (untreated plot = 100), Test 6 (“Momotaro” tomato [1]; underground portion): 190 | Fresh weight, relative value (untreated plot = 100), Test 7 (“Momotaro” tomato [1]; underground portion): 145 | Fresh weight, relative value (untreated plot = 100), Comparison 2 (“Momotaro” tomato [1]; underground portion): 104

Alkyl (C10) polyglycoside [Product of present invention 15]
Fresh weight, relative value (untreated plot = 100), Test 1 (“Momotaro” tomato [2]; leaf): 121 | Fresh weight, relative value (untreated plot = 100), Test 4 (“Momotaro” tomato [2]; leaf): 134 | Fresh weight, relative value (untreated plot = 100), Test 2 (“Momotaro” tomato [2]; leaf): 142 | Fresh weight, relative value (untreated plot = 100), Test 3 (“Momotaro” tomato [2]; leaf): 121 | Fresh weight, relative value (untreated plot = 100), Comparison 1 (“Momotaro” tomato [2]; leaf): 101 | Fresh weight, relative value (untreated plot = 100), Test 5 (“Momotaro” tomato [1]; leaf): 125 | Fresh weight, relative value (untreated plot = 100), Test 8 (“Momotaro” tomato [1]; leaf): 138 | Fresh weight, relative value (untreated plot = 100), Test 6 (“Momotaro” tomato [1]; leaf): 145 | Fresh weight, relative value (untreated plot = 100), Test 7 (“Momotaro” tomato [1]; leaf): 125 | Fresh weight, relative value (untreated plot = 100), Comparison 2 (“Momotaro” tomato [1]; leaf): 101
